This passage reports IC50 results from patent publication US5288758A, “New urea derivatives, their preparation and their application in therapy” (priority 1991, dated 1994).

What is called IC50 is the concentration needed to halve the response being measured.

The experiment concerns the target acetylcholinesterase (Homo sapiens, UniProt P22303). The experiment can be described thus: biochemical. As to conditions: method of Ellman et al., Biochem. Pharmacol. 7, 88-95 (1961); read-out: Inhibition of acetylcholinesterase activity, IC50. (In general: In Ellman's method for cholinesterases, released thiocholine reacts with DTNB.)

Structures are written as SMILES.

acetylcholinesterase, sequence (P22303 32-614): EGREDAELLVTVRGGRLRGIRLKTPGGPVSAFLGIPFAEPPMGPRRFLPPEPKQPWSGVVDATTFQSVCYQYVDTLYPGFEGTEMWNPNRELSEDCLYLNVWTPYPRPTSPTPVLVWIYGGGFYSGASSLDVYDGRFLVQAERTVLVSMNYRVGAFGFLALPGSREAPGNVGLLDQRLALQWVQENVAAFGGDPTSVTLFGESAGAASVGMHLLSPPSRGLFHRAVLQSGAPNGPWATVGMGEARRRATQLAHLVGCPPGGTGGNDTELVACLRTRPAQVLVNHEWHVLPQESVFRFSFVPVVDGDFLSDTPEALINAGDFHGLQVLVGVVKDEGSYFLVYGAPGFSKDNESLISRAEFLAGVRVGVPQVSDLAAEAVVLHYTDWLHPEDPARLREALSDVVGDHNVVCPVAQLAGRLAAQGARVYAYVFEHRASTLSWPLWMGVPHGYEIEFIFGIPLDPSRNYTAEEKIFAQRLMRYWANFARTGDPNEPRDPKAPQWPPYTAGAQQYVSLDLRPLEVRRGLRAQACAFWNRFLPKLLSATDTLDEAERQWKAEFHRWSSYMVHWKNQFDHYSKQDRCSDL

For `CN(CCOCCNC(=S)NC(=O)c1cccc([N+](=O)[O-])c1)Cc1ccccc1` [Compound 13], the IC50 stood at 0.015 µM. Consider `CN(CCOCCNC(=S)NC(=O)c1ccc(Cl)cc1)Cc1ccccc1` [Compound 12], for which the IC50 was 0.03 µM. Take `CN(CCCCCNC(=S)NC(=O)c1ccccc1)CC1CCCCC1` [Compound 5, 1-Benzoyl-3-[5-(N-cyclohexylmethyl-N-methylamino)pentyl]thiourea]: the half-maximal inhibitory concentration (IC50) is 0.05 µM.

For `COc1ccc(C(=O)NC(=S)NCCOCCN(C)Cc2ccccc2)cc1` [Compound 11], the IC50 was 0.026 µM. The value for `CN(CCOCCNC(=S)NC(=O)c1ccc2ccccc2c1)Cc1ccccc1` [Compound 16] was 0.1 µM; that for `CN(CCOCCNC(=S)NC(=O)c1ccc(Cl)c(Cl)c1)Cc1ccccc1` [Compound 14] was 0.055 µM.
